Where “and” joins values, the source holds several entries; their conditions need not be identical. Identical values can stand only once. Like-named read-outs stand apart in the source and are kept apart here. Ends that are not written are not given here.
What was measured:
[1] = tested on: SARS-CoV-2 ORF 8 gene; type: cell-based
[2] = Nanoparticle formation of peptides with ADGN-106: mean size and polydispersity (Zetasizer); type: physicochemical; details: 25° C.; for Mean Size (nm): peptide/ADGN-106 complexes; for PI: polydispersity index of peptide/ADGN-106 complexes
Description: We then tested the ability of the different peptides to form nanoparticle organization in the presence of ADGN-106 or ADGN-100 peptide. […] Peptides were complexed with 5 or 10 molar excess of ADGN-106.

[3] = tested on: SARS-CoV-2
[4] = tested on: Vero E6 cells; details: for Cell Viability (%): 0.5 µM
[5] = tested on: SARS-CoV-2 ORF 3A gene; type: cell-based
[6] = tested on: Vero-6 cells; assay: Cellular toxicity of siRNA/ADGN-100 complexes on Vero-6 cells, CellTiter-Glo; details: uninfected Vero-6 cells
[7] = tested on: SARS-CoV-2 Nucleocapsid gene; type: cell-based
[8] = tested on: SARS-CoV-2; assay: siRNA/ADGN-100 complexes on SARS-CoV2 virus infection, Vero E6 cells; type: cell-based
[9] = tested on: SARS-CoV-2 nucleocapside; type: cell-based; details: read-out: IC50 of silencing response
[10] = tested on: SARS-CoV-2; remark: listed apart in the source
[11] = biological target: ACE2:SARS-CoV-2 Spike interaction (UniProt P0DTC2+Q9BYF1); assay: biochemical; type: binding
Sequence of ACE2:SARS-CoV-2 Spike interaction (Q9BYF1 18-740, one chain of several): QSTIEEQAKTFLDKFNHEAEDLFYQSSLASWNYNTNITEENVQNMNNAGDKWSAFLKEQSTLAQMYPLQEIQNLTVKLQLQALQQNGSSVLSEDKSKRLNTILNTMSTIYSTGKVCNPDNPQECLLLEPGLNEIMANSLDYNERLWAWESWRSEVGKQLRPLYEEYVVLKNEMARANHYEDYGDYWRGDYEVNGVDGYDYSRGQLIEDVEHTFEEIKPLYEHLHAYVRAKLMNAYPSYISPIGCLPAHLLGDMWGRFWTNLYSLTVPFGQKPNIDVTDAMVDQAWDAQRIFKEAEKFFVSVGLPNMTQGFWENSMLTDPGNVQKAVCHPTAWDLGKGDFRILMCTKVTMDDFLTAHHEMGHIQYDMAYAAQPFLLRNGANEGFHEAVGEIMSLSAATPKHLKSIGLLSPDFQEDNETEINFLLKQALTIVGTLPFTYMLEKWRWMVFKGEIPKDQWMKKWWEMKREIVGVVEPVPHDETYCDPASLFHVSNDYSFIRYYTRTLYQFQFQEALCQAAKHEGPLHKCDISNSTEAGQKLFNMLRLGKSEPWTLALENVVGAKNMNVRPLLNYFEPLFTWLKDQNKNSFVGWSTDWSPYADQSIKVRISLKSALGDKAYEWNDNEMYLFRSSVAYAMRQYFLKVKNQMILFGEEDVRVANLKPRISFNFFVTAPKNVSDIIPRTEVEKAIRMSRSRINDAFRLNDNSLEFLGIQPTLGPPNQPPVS

[12] = biological target: SARS-CoV-2 Spike: ACE2 interaction (UniProt P0DTC2+Q9BYF1); assay: biochemical; type: binding
Sequence of SARS-CoV-2 Spike: ACE2 interaction (Q9BYF1 18-740, one chain of several): as above

[13] = in vitro; details: uninfected Vero E6 cells
[14] = tested on: SARS-CoV-2; assay: microbe, parasite or virus in culture
[15] = Lung and liver toxicity studies after intratracheal instillation
Procedure: Single dose of peptides or peptide/siRNA complexes were administrated via intratracheal instillation (200 μg) (Table 20). Saline solution was used as negative control. Samples were collected 12, 24, 48 and 72 hr post administration.
The body weight of the mice were recorded before intratracheal instillation (day 0), at day1, day 2 and before being sacrificed (day 3). The lung, liver, heart, kidney and brain were collected at day 3 and organ index were determined.
Bronchoalveolar lavage (BAL) were performed 2 days after instillation. The percentage of the cells, the total protein and level of LDH in the BAL were analyzed.
AST and ALT levels in the plasma were assayed 2 days after instillation.

[16] = siRNA complexed with ADGN-100 at molar ratio 1/20, added to Vero-E6 immediately prior to virus infection, read-out: IC50
[17] = read-out: SARS-COV2 IC50, original strain, second Table 19, siRNA complexed at molar ratio 1/20
[18] = read-out: IC50 against SARS-CoV2 virus infection

With GTGGATGAGGCTGGTTCTAAA [DIVC-83] the IC50 [1] was 15.4 ± 3 nM.

In the case of GACCCGTGTCCTATTCACTTC [DIVC-82], the IC50 [1] is reported as 21.7 ± 7 nM.

With “Ac-S*YGFQPTNGV*-Ava-LWRALWRLWRSLWRLLWK-NH2 [Seq20]” the “Mean Size (nm)” value [2] was 68.1 ± 5 nm, the PI [2] was 0.25 and the “Residual Infection (%)” value [3] was 65%. The “inhibition of viral infection” value [3] was “exhibit inhibition of viral infection” and the “Cell Viability (%)” value ([4]; uninfected Vero E6 cells) was 91%.

Work on “TGCAGAGTATAAACTTTGTAA (chemistry not given here) [DIVC-35]” yielded an IC50 [5] of 125 ± 11 nM.

“CAAGTCCTATTTCTGAACATG (chemistry not given here) [DIVC-33]” showed an IC50 [5] of 57.2 ± 12 nM.

With “KWRSAGWRWRLWRVRSWSR [ADGN-100, reference compound]” the “TD50 (μM)” value [6] was 368 + 18 μM.

In the case of “GGCCAAACTGTCACTAAGAAA (chemistry not given here) [DIVC-6]”, the IC50 [7] is reported as 8.7 ± 2 nM, the “fold stronger anti-SARS-CoV-2 activity than hydroxychloroquine sulfate” value [8] is reported as 64 fold and the IC50 [8, 16] is reported as 68 ± 12 nM. For the same molecule, the IC50 [9] was 11 nM and 8.7 nM, the IC50 [10, 17] was 68 nM and the “TD50 (μM)” value [6] was 652 + 24 μM.

For “GTTGATGACCCGTGTCCTATT (chemistry not given here) [DIVC-81]”, the IC50 [1] was greater than 200 nM.

For CSCC[C@H](NC(=O)[C@H](CC(N)=O)NC(C)=O)C(=O)N[C@H](C(=O)N[C@@H](CCC(N)=O)C(=O)NCC(=O)N[C@@H](Cc1ccccc1)C(=O)N[C@@H](Cc1c[nH]c2ccccc12)C(=O)N[C@@H](CCC(=O)O)C(=O)N[C@@H](CC(N)=O)C(=O)N1CCC[C@H]1C(=O)NCC(=O)NCC(=O)N1CCC[C@H]1C(=O)N[C@H](C(=O)N[C@@H](C)C(=O)N[C@@H](Cc1c[nH]c2ccccc12)C(=O)N[C@@H](CC(=O)O)C(=O)N[C@@H](CC(C)C)C(=O)NCC(=O)N[C@@H](CCCCN)C(=O)NCCCCCC(=O)N[C@@H](CC(C)C)C(=O)N[C@@H](Cc1c[nH]c2ccccc12)C(=O)N[C@@H](CCCNC(=N)N)C(=O)N[C@@H](C)C(=O)N[C@@H](CC(C)C)C(=O)N[C@@H](Cc1c[nH]c2ccccc12)C(=O)N[C@@H](CCCNC(=N)N)C(=O)N[C@@H](CC(C)C)C(=O)N[C@@H](Cc1c[nH]c2ccccc12)C(=O)N[C@@H](CCCNC(=N)N)C(=O)N[C@@H](CO)C(=O)N[C@@H](CC(C)C)C(=O)N[C@@H](Cc1c[nH]c2ccccc12)C(=O)N[C@@H](CCCNC(=N)N)C(=O)N[C@@H](CC(C)C)C(=O)N[C@@H](CC(C)C)C(=O)N[C@@H](Cc1c[nH]c2ccccc12)C(=O)N[C@@H](CCCCN)C(N)=O)[C@@H](C)O)[C@@H](C)O [Seq38], the IC50 ([11]; ACE2:SARS-CoV-2 Spike IC50) was 103 ± 17 nM, the IC50 ([12]; SARS-CoV-2 Spike:ACE2 IC50) was 214 nM and the “Mean Size (nm)” value [2] was 39 ± 10 nm. For the same molecule, the PI [2] was 0.25, the “Residual Infection (%)” value [3] was 80% and the viability at 0.5 µM [13] was 68%.

For “Ac-G*FQPTNGVK*-Ava-LWRALWRLWRSLWRLLWK-NH2 [Seq21]”, the “Mean Size (nm)” value [2] was 78.2 ± 7 nm, the PI [2] was 0.3 and the “Residual Infection (%)” value [3] was 79%. The “Cell Viability (%)” value ([4]; uninfected Vero E6 cells) was 78%.

In the case of “GACAAGGCGTTCCAATTAACA (chemistry not given here) [DIVC-3]”, the IC50 [7] is reported as 11.4 ± 5 nM, the IC50 [8, 16] is reported as 84 ± 14 nM and the “TD50 (μM)” value [6] is reported as 452 + 20 μM.

In the case of CCN(CCO)CCCC(C)Nc1ccnc2cc(Cl)ccc12 (centres unmarked) [Hydroxy chloroquine], the “TD50” value ([4]; African green monkey) is reported as 190 ± 28 µM, the IC50 ([14]; Severe acute respiratory syndrome coronavirus 2, Vero C1008, read-out: IC50 against SARS-CoV2 virus infection) is reported as 4400 ± 215 nM and the IC50 ([14]; Severe acute respiratory syndrome coronavirus 2, Vero C1008, read-out: P-IC50 (nM)) is reported as 4700 nM. It also gave an IC50 ([14]; Severe acute respiratory syndrome coronavirus 2, Vero, read-out: D-IC50 (nM)) of 4400 ± 215 nM.

Molecule “GAACATGTTACCTTCTTCATC (chemistry not given here) [DIVC-34]” has an IC50 [5] of 12.3 ± 1 nM, an IC50 [8, 18] of roughly 1000 nM and an IC50 [8, 16] of 1450 nM. For the same molecule, the “TD50 (μM)” value [6] was 589 + 17 μM.

Molecule GGTGAAATCAAGGATGCTACT [DIVC-31] has an IC50 [5] of 18.4 ± 2 nM.

Molecule “GTCCTATTCACTTCTATTCTA (chemistry not given here) [DIVC-85]” has an IC50 [1] of 10.8 ± 2 nM, an IC50 [8, 18] of roughly 1000 nM and an IC50 [8, 16] of 1220 nM. For the same molecule, the “TD50 (μM)” value [6] was 248 + 35 μM.

With “Ac-KTFLDKFNHEAEDLFPGPKWSAFLKEQSTLAQMYG [Seq28]” the “folds more potent than SBP-1-ADGN-106/ADGN-106 complex” value [11] was 6 folds, the “folds more potent than SBP-1 coupled to ADGN-106” value [11] was 6 folds and the “folds more potent than SBP-1 peptide/ADGN-106 complex” value [11] was 40 folds. The “folds more potent than free SBP-1” value [11] was 15 folds, the “folds more potent than SBP-1-ADGN-106/ADGN-106 complex” value [12] was 4 folds and the “folds more potent than SBP-1 coupled to ADGN-106” value [12] was 3.5 folds. For the same molecule, the “folds more potent than SBP-1 peptide/ADGN-106 complex” value [12] was 35 folds, the “folds more potent than free SBP-1” value [12] was 7 folds and the “Mean Size (nm)” value [2] was 34.6 ± 7 nm. The PI [2] was 0.18, the “Residual Infection (%)” value [3] was 10% and the “fold stronger anti-SARS-CoV-2 activity than hydroxychloroquine sulfate” value [3] was 250 fold. The “increase of potency by pre-incubation with SARS CoV-2 prior infection” value [3] was 2 factor, the “inhibition of viral infection” value [3] was “exhibit inhibition of viral infection” and the CC50 [13] was 290000 ± 51000 nM. It also gave a viability at 0.5 µM [13] of 78%.

With “Ac-T*NGVGYQPYK*-Ava-LWRALWRLWRSLWRLLWK-NH2 [Seq22]” the “blocked SARS-CoV-2 Spike: ACE2 interaction” value [12] was “blocked”, the “fold less potent than Seq20/Seq21” value [12] was 3.6 fold and the “Mean Size (nm)” value [2] was 54.4 ± 8 nm. The PI [2] was 0.24, the “Residual Infection (%)” value [3] was 40% and the “inhibition of viral infection” value [3] was “exhibit inhibition of viral infection”. The “reduction of virus infection” value [3] was 60%, the IC50 ([3]; read-out: D-IC50) was 124 ± 14 nM and the IC50 ([3]; read-out: P-IC50) was 145 ± 25 nM. The “TD50” value ([4]; uninfected Vero E6 cells) was 358 ± 27 µM and the “Cell Viability (%)” value ([4]; uninfected Vero E6 cells) was 87%.

In the case of “GCCTCTTCTCGTTCCTCATCA (chemistry not given here) [DIVC-8]”, the IC50 [7] is reported as 27.3 nM, the IC50 [8, 16] is reported as 117 nM and the “TD50 (μM)” value [6] is reported as 548 + 25 μM.

Molecule “GCGTTGTTCGTTCTATGAAGA (chemistry not given here) [DIVC-84]” has an IC50 [1] of 113 ± 15 nM.

In the case of “Ac-N*GVEGFNK*Ava-LWRALWRLWRSLWRLLWK-NH2 [Seq17]”, the “Mean Size (nm)” value [2] is reported as 57 ± 4 nm, the PI [2] is reported as 0.17 and the “percentage of the cells in bronchoalveolar lavage” value ([15]; 2 days after instillation, versus saline) is reported as “slight increases of macrophages”. The “lung and liver toxicity associated to treatment” value ([15]; mouse, in vivo) was “no lung and liver toxicity”, the “Residual Infection (%)” value [3] was 20% and the “inhibition of viral infection” value [3] was “exhibit inhibition of viral infection”. The “reduction of anti-viral activity by pre-incubation” value [3] was 2 fold, the IC50 ([3]; read-out: D-IC50) was 21.5 ± 12 nM and the IC50 ([3]; read-out: IC50, SARS-COV2) was 31.5 ± 12 nM. The IC50 ([3]; read-out: P-IC50) was 57.2 ± 12 nM, the “TD50” value ([4]; uninfected Vero E6 cells) was 340 ± 28 µM and the “Cell Viability (%)” value ([4]; uninfected Vero E6 cells) was 85%. For the same molecule, the IC50 [10, 17] was 31.5 ± 12 nM and the IC50 ([10]; treatments added to Vero-E6 immediately prior to virus infection, Table 16) was 27.5 ± 11 nM.

With “Ac-G*NYNYLYRLFK*-Ava-LWRALWRLWRSLWRLLWK-NH2 [Seq15]” the IC50 ([11]; read-out: ACE2:SARS-CoV-2 Spike IC50) was greater than 10000 nM, the IC50 ([12]; read-out: SARS-CoV-2 Spike:ACE2 IC50) was greater than 1000 nM and the “Mean Size (nm)” value [2] was 37.5 ± 5 nm. For the same molecule, the PI [2] was 0.23, the “Residual Infection (%)” value [3] was 100% and the “Cell Viability (%)” value ([4]; uninfected Vero E6 cells) was 95%.

“GTGTAACTTCTTCAATTGTCA (chemistry not given here) [DIVC-32]” showed an IC50 [5] of 95.1 ± 7 nM.

Source: US20230304010A1, “COMPOSITIONS AND METHODS FOR TREATING VIRAL INFECTIONS” (priority 2020, published 2023)
